# Source: US9546158B2, “2,5-substituted pyrimidines” (Grünenthal GmbH, priority 2014, dated 2017)
# Biological target: T1, human PDE4B1 (Homo sapiens, UniProt Q07343)
# T1 construct: host or cells: Sf9 cells
# Assay: cAMP HTRF assay to determine the activity of hPDE4B1
# Assay type: biochemical
# Settings: test substrate concentration of 1 μM, read-out: Inhibition of PDE4B, Inhibition in %
# Description: cAMP HTRF® Assay to Determine the Activity of hPDE4B1
# The inhibiting effect of the compounds on the enzyme activity of human PDE4B1 was measured by the quantification of 5′-adenosine monophosphate (5′-AMP), which is formed from 3′,5′-cyclic adenosine monophosphate (cAMP). Human recombinant enzyme, expressed in Sf9 cells, and the HTRF (homogeneous time-resolved fluorescence) detection method were used in the assay.
# The test compound or water (control) was mixed with the human recombinant PDE4B1 enzyme (4.8 U) in a buffer consisting of 44.4 mM tris-HCl, 5.28 mM MgCl2, 2.64 mM DTT and 0.044% Tween 20 (pH 7.8). After adding the cAMP enzyme substrate (final concentration 40 nM), the mixture was incubated for 30 minutes at room temperature. Then a fluorescence acceptor (Dye2 marked with cAMP), a fluorescence donor (anti-cAMP antibody marked with a europium cryptate) and the non-specific phosphodiesterase inhibitor IBMX (3-isobutyl-1-methylxanthine; final concentration 1 mM) were added. After 60 minutes the fluorescence transfer, which correlates with the amount of remaining cAMP, was measured with a microplate reader (Rubystar, BMG) at λex=337 nm, λem=620 nm and λem=665 nm. The enzyme activity was calculated from the quotient formed from the measured signal at 665 nm and that at 620 nm. The result was expressed as the percentage inhibition of enzyme activity of the control (without PDE4 inhibitor). The enzyme was omitted for measurement of the basal control. IC50 values (IC50=concentration causing a half-maximal inhibition of control specific activity) were derived from dose response measurements with eight different concentrations (n=2; N=1-3).
# Literature: N. Saldou et al., Comparison of recombinant human PDE4 isoforms: interaction with substrate and inhibitors, Cell. Signal. Vol. 10, No. 6, 427-440, 1998
# T1 sequence (Q07343 whole entry): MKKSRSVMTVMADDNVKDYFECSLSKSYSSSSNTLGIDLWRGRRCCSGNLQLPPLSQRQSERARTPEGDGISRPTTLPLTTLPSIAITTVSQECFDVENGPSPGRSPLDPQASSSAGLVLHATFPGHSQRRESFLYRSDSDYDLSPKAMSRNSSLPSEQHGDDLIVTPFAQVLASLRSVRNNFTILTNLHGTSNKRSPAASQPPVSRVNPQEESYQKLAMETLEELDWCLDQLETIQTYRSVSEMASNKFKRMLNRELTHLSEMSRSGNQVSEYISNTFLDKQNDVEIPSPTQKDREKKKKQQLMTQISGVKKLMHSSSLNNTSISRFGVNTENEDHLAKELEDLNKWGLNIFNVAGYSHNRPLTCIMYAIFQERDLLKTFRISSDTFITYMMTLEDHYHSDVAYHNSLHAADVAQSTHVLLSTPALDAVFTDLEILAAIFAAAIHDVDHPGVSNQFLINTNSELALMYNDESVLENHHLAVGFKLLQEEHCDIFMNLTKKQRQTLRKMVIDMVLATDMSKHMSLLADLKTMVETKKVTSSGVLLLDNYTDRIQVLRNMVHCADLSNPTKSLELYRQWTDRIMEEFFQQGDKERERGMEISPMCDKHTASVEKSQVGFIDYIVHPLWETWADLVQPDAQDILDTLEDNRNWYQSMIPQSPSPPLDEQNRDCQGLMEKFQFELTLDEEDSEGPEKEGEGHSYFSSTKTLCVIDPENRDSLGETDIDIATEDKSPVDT
row,SMILES,inhibition at 1 µM
1,"O=C(c1cc2c(cn1)c(C1CC1)nn2-c1ncc(-c2ccccc2F)cn1)N1CCCC1 [compound 38, (3-Cyclopropyl-1-(5-(2-fluorophenyl)pyrimidin-2-yl)-1H-pyrazolo[4,3-c]pyridin-6-yl)(pyrrolidin-1-yl)methanone]",85%
2,"CCN(CC)C(=O)c1cc2c(cn1)c(C1CC1)nn2-c1ncc(-c2ccccc2F)cn1 [compound 39, 3-Cyclopropyl-N,N-diethyl-1-(5-(2-fluorophenyl)pyrimidin-2-yl)-1H-pyrazolo[4,3-c]pyridine-6-carboxamide]",67%
3,"CN(CCO)C(=O)c1cc2c(cn1)c(C1CC1)nn2-c1ncc(-c2ccccc2F)cn1 [compound 40, 3-Cyclopropyl-1-(5-(2-fluorophenyl)pyrimidin-2-yl)-N-(2-hydroxyethyl)-N-methyl-1H-pyrazolo[4,3-c]pyridine-6-carboxamide]",40%
4,"COCCNC(=O)c1cc2c(cn1)c(C1CC1)nn2-c1ncc(-c2ccccc2F)cn1 [compound 41, 3-Cyclopropyl-1-(5-(2-fluorophenyl)pyrimidin-2-yl)-N-(2-methoxyethyl)-1H-pyrazolo[4,3-c]pyridine-6-carboxamide]",69%
5,"O=C(c1cc2c(cn1)c(C1CC1)nn2-c1ncc(-c2ccccc2F)cn1)N1CCCCC1 [compound 42, (3-Cyclopropyl-1-(5-(2-fluorophenyl)pyrimidin-2-yl)-1H-pyrazolo[4,3-c]pyridin-6-yl)(piperidin-1-yl)methanone]",39%
6,"COCCCNC(=O)c1cc2c(cn1)c(C1CC1)nn2-c1ncc(-c2ccccc2F)cn1 [compound 43, 3-Cyclopropyl-1-(5-(2-fluorophenyl)pyrimidin-2-yl)-N-(3-methoxypropyl)-1H-pyrazolo[4,3-c]pyridine-6-carboxamide]",44%
7,"CC1COCCN1C(=O)c1cc2c(cn1)c(C1CC1)nn2-c1ncc(-c2ccccc2F)cn1 (centres unmarked) [compound 44, (3-Cyclopropyl-1-(5-(2-fluorophenyl)pyrimidin-2-yl)-1H-pyrazolo[4,3-c]pyridin-6-yl)(3-methylmorpholino)methanone]",61%
8,"O=C(NC1CCOCC1)c1cc2c(cn1)c(C1CC1)nn2-c1ncc(-c2ccccc2F)cn1 [compound 45, 3-Cyclopropyl-1-(5-(2-fluorophenyl)pyrimidin-2-yl)-N-(tetrahydro-2H-pyran-4-yl)-1H-pyrazolo[4,3-c]pyridine-6-carboxamide]",27%
9,"O=C(NCC1(O)CCC1)c1cc2c(cn1)c(C1CC1)nn2-c1ncc(-c2ccccc2F)cn1 [compound 46, 3-Cyclopropyl-1-(5-(2-fluorophenyl)pyrimidin-2-yl)-N-((1-hydroxycyclobutyl)methyl)-1H-pyrazolo[4,3-c]pyridine-6-carboxamide]",31%
10,"O=C(NCCn1cncn1)c1cc2c(cn1)c(C1CC1)nn2-c1ncc(-c2ccccc2F)cn1 [compound 47, N-(2-(1H-1,2,4-Triazol-1-yl)ethyl)-3-cyclopropyl-1-(5-(2-fluorophenyl)pyrimidin-2-yl)-1H-pyrazolo[4,3-c]pyridine-6-carboxamide]",67%
11,"COC[C@@H]1CCCN1C(=O)c1cc2c(cn1)c(C1CC1)nn2-c1ncc(-c2ccccc2F)cn1 [compound 48, (S)-(3-Cyclopropyl-1-(5-(2-fluorophenyl)pyrimidin-2-yl)-1H-pyrazolo[4,3-c]pyridin-6-yl)(2-(methoxymethyl)pyrrolidin-1-yl)methanone]",43%
12,"CC1COCC(C)N1C(=O)c1cc2c(cn1)c(C1CC1)nn2-c1ncc(-c2ccccc2F)cn1 (centres unmarked) [compound 49, (3-Cyclopropyl-1-(5-(2-fluorophenyl)pyrimidin-2-yl)-1H-pyrazolo[4,3-c]pyridin-6-yl)(3,5-dimethylmorpholino)methanone]",54%

# Biological target: T1, human PDE4B1
# Assay: TR-FRET assay using the LANCE Ultra cAMP kit to determine the activity of hPDE4B1
# Assay type: biochemical
# Settings: test substrate concentration of 10 μM, read-out: Inhibition of PDE4B, Inhibition in %
# From the text: TR-FRET Assay Using the LANCE® Ultra cAMP Kit to Determine the Activity of hPDE4B1
# The effects of the compounds on the activity of the human PDE4B1 was quantified by measuring the production of 5′AMP from cAMP using a human recombinant enzyme expressed in Sf9 cells and the LANCE® Ultra cAMP kit, a TR-FRET detection method from PerkinElmer. The human PDE4B1 enzyme was purchased from SignalChem Lifesciences (Catalog #P92-31BG, Lot #H296-2).
# The test compound, reference compound or water (control) was mixed with the enzyme (0.96 U) in a reaction buffer containing 50 mM Tris-HCl, 50 mM MgCl2 and 5 mM DTT (pH 8.5). Thereafter, the reaction was initiated by addition of 500 nM cAMP (substrate) and the mixture was incubated for 30 minutes at room temperature. For control basal measurements, the enzyme was omitted from the reaction mixture. After 30 minutes, the reaction was stopped and diluted by a factor of 100 with the reaction buffer supplemented with 500 μM IBMX. The fluorescence donor (europium chelate-labeled cAMP) and the fluorescence acceptor (anti-cAMP antibody labeled with the ULight™ dye) were then added together with 500 μM IBMX to a 10 μl aliquot. After 60 minutes, the fluorescence transfer corresponding to the amount of residual cAMP was measured at λex=337 nm, λem=620 nm and λem=665 nm using a microplate reader (PHERAstar, BMG). The enzyme activity was determined by dividing the signal measured at 665 nm by that measured at 620 nm (ratio) multiplied by 10000. The results were expressed as percent inhibition of the control enzyme activity. IC50 values (IC50=concentration causing a half-maximal inhibition of control specific activity) were derived from dose response measurements with ten different concentrations (n=3; N=1-3).
row,SMILES,inhibition at 10 µM
1,"Cc1ccc(F)c(-c2cnc(-n3nc([S+](C)[O-])c4ccc(C(=O)N5CCOCC5)cc43)nc2)c1 (single isomer, unassigned) [Compound No. 65, (1-(5-(2-Fluoro-5-methylphenyl)pyrimidin-2-yl)-3-(methylsulfinyl)-1H-indazol-6-yl)(morpholino)methanone]",100%
2,"Cc1ccc(F)c(-c2cnc(-n3nc([S+](C)[O-])c4ccc(C(=O)N5CCOCC5)cc43)nc2)c1 (centres unmarked) [Compound No. 32, (1-(5-(2-Fluoro-5-methylphenyl)pyrimidin-2-yl)-3-(methylsulfinyl)-1H-indazol-6-yl)(morpholino)methanone]",96%
3,"Cc1ccc(F)c(-c2cnc(-n3nc(S(C)(=O)=O)c4ccc(C(=O)N5CCOCC5)cc43)nc2)c1 [Compound No. 33, (1-(5-(2-Fluoro-5-methylphenyl)pyrimidin-2-yl)-3-(methylsulfonyl)-1H-indazol-6-yl)(morpholino)methanone]",102%
4,"Cc1ccc(F)c(-c2cnc(-n3nc(C(C)O)c4ccc(C(=O)N5CCOCC5)cc43)nc2)c1 (centres unmarked) [Compound No. 34, (1-(5-(2-Fluoro-5-methylphenyl)pyrimidin-2-yl)-3-(1-hydroxyethyl)-1H-indazol-6-yl)(morpholino)methanone]",107%
5,"Cc1ccc(F)c(-c2cnc(-n3nc(C(C)O)c4ccc(C(=O)N(C)CCO)cc43)nc2)c1 (centres unmarked) [Compound No. 66, 1-(5-(2-Fluoro-5-methylphenyl)pyrimidin-2-yl)-3-(1-hydroxyethyl)-N-(2-hydroxyethyl)-N-methyl-1H-indazole-6-carboxamide]",105%
6,"Cc1ccc(F)c(-c2cnc(-n3nc(C(C)O)c4ccc(C(=O)N(C)CC(N)=O)cc43)nc2)c1 (centres unmarked) [Compound No. 67, N-(2-Amino-2-oxoethyl)-1-(5-(2-fluoro-5-methylphenyl)pyrimidin-2-yl)-3-(1-hydroxyethyl)-N-methyl-1H-indazole-6-carboxamide]",90%
7,"CCc1ccc(F)c(-c2cnc(-n3nc(C(C)O)c4ccc(C(=O)N(C)CC(N)=O)cc43)nc2)c1 (centres unmarked) [Compound No. 68, N-(2-Amino-2-oxoethyl)-1-(5-(5-ethyl-2-fluorophenyl)pyrimidin-2-yl)-3-(1-hydroxyethyl)-N-methyl-1H-indazole-6-carboxamide]",106%
8,"CCc1ccc(F)c(-c2cnc(-n3nc(C(C)O)c4ccc(C(=O)N5CCOCC5)cc43)nc2)c1 (centres unmarked) [Compound No. 69, (1-(5-(5-Ethyl-2-fluorophenyl)pyrimidin-2-yl)-3-(1-hydroxyethyl)-1H-indazol-6-yl)(morpholino)methanone]",77%
9,Cc1ccnc(-c2cnc(-n3nc(C(C)O)c4ccc(C(=O)N5CCOCC5)cc43)nc2)c1 (centres unmarked) [Compound No. 70],105%
10,"COc1ccnc(-c2cnc(-n3nc(C(C)O)c4ccc(C(=O)N5CCOCC5)cc43)nc2)c1 (centres unmarked) [Compound No. 71, (3-(1-Hydroxyethyl)-1-(5-(4-methoxypyridin-2-yl)pyrimidin-2-yl)-1H-indazol-6-yl)(morpholino)methanone]",108%
11,"CC(O)c1nn(-c2ncc(-c3cc(C4CC4)ccn3)cn2)c2cc(C(=O)N3CCOCC3)ccc12 (centres unmarked) [Compound No. 73, (1-(5-(4-Cyclopropylpyridin-2-yl)pyrimidin-2-yl)-3-(1-hydroxyethyl)-1H-indazol-6-yl)(morpholino)methanone]",105%
